Remaining binding data for 3 molecules are collected here from US12275731B2, “Azaindole inhibitors of wild-type and mutant forms of LRRK2” (DANA-FARBER CANCER INSTITUTE, INC., priority 2018, dated 2025).

Holding throughout (experiment): KinomeScan profiling
Type in all cases: binding

One test has as its target T1, ACVR1 (Homo sapiens, UniProt Q04771).
T1 construct: purchased KinomeScan®
T1 sequence (Q04771 21-509): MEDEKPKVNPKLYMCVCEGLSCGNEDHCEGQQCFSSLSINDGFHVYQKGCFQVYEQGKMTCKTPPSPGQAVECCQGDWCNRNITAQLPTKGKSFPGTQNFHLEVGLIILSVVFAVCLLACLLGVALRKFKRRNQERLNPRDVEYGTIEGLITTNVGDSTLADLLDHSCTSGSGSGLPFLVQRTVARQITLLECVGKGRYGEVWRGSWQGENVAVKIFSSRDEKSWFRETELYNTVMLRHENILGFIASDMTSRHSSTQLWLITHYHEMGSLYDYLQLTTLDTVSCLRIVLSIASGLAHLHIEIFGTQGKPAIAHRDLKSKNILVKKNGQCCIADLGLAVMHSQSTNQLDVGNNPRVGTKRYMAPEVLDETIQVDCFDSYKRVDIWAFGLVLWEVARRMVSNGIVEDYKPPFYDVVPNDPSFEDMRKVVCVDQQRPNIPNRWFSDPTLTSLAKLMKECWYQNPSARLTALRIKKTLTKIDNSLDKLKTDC
The note with it: ACVR1, 1 μM; read-out: % control. Put shortly: (§1)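 Percent-of-control values derive from RLU, calculated as (test − positive)/(negative − positive) × 100, where DMSO defines 100% and a positive control compound defines 0%. Each compound was tested at 1 μM in the 468-kinase panel; sub-35% readings indicate activity.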

A further test deals with CSF1R (Homo sapiens, UniProt P07333). The following applies: read-out: % control. A digest of the protocol: as §1
The next test concerns the target CSNK1A1 (Homo sapiens, UniProt P48729). The note with it: CSNK1A1, 1 μM; read-out: % control. Put shortly:
as §1

A further test deals with T2, DRAK2 (Homo sapiens, UniProt O94768).
T2 sequence (O94768 1-372): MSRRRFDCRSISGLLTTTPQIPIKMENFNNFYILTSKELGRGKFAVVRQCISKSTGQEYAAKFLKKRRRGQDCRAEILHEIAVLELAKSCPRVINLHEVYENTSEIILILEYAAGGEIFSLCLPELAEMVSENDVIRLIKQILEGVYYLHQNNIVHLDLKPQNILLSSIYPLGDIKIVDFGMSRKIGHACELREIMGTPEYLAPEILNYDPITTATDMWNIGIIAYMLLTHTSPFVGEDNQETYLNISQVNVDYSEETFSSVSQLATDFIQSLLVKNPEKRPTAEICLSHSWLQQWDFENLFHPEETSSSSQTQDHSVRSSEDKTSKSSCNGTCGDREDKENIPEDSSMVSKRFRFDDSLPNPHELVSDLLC
The following applies: DRAK2, 1 μM; read-out: % control. Put shortly:
as §1

The next test has as its target EPHA2 (Homo sapiens, UniProt P29317). The note with it: EPHA2, 1 μM; read-out: % control. A digest of the protocol:
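First, compounds in DMSO are added at 1 μM to each of 468 kinase assays. Next, RLU signals are normalised between positive control (0%) and DMSO (100%). Finally, kinases under 35% are flagged active.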

The next test has as its target FAK (Homo sapiens, UniProt Q05397). The following applies: read-out: % control. Put shortly: as §1
In a further test the target is FLT4 (Homo sapiens, UniProt P35916). The following applies: FLT4, 1 μM; read-out: % control. Put shortly: as §1
The next test concerns the target T3, ICK (Homo sapiens, UniProt Q9UPZ9).
T3 sequence (Q9UPZ9 1-632): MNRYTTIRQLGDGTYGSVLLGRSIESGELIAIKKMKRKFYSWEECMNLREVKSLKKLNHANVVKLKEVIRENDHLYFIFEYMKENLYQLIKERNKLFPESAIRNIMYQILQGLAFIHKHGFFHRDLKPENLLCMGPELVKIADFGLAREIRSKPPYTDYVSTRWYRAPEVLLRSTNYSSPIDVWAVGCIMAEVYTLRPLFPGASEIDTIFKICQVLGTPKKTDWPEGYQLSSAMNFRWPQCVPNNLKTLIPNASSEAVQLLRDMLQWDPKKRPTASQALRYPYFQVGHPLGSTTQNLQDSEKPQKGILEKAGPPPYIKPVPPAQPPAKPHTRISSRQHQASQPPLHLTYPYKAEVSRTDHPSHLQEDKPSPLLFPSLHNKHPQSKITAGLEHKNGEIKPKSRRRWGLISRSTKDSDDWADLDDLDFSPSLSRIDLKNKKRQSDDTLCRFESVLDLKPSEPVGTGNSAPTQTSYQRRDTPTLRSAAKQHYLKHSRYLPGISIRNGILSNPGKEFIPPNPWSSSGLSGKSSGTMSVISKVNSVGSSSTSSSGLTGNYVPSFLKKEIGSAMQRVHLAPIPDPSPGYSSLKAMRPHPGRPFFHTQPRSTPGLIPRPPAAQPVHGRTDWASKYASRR
The note with it: read-out: % control. A digest of the protocol: as §1

The target of another test is MET(M1250T) (Homo sapiens, UniProt P08581, M1250T). The note with it: read-out: % control. A digest of the protocol: as §1
In the next test the target is MRCKA (Homo sapiens, UniProt Q5VT25). The following applies: read-out: % control. Put shortly: as §1
A further test has as its target ROS1 (Homo sapiens, UniProt P08922). The following applies: ROS1, 1 μM; read-out: % control. Put shortly:
as §1

For test [1], the target named is T4, RSK4(Kin.Dom.2-C-terminal) (Homo sapiens, UniProt Q9UK32).
T4 construct: RSK4(Kin.Dom.2-C-terminal)
T4 sequence (Q9UK32 426-683 limits assumed): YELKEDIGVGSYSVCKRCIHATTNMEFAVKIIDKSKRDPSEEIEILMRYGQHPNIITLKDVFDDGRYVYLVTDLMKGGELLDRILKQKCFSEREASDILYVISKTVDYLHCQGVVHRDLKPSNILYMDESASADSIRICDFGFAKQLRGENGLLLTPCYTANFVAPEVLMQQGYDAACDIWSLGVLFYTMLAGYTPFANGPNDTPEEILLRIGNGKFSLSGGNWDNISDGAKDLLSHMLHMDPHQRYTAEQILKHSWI
The following applies: read-out: % control. Put shortly:
as §1

The target of another test is WEE2 (Homo sapiens, UniProt P0C1S8). The following applies: WEE2, 1 μM; read-out: % control. Put shortly: as §1
For another test, the target named is YANK2 (Homo sapiens, UniProt Q9NY57). The note with it: YANK2, 1 μM; read-out: % control. A digest of the protocol:
as §1

FAK, sequence (Q05397 whole entry): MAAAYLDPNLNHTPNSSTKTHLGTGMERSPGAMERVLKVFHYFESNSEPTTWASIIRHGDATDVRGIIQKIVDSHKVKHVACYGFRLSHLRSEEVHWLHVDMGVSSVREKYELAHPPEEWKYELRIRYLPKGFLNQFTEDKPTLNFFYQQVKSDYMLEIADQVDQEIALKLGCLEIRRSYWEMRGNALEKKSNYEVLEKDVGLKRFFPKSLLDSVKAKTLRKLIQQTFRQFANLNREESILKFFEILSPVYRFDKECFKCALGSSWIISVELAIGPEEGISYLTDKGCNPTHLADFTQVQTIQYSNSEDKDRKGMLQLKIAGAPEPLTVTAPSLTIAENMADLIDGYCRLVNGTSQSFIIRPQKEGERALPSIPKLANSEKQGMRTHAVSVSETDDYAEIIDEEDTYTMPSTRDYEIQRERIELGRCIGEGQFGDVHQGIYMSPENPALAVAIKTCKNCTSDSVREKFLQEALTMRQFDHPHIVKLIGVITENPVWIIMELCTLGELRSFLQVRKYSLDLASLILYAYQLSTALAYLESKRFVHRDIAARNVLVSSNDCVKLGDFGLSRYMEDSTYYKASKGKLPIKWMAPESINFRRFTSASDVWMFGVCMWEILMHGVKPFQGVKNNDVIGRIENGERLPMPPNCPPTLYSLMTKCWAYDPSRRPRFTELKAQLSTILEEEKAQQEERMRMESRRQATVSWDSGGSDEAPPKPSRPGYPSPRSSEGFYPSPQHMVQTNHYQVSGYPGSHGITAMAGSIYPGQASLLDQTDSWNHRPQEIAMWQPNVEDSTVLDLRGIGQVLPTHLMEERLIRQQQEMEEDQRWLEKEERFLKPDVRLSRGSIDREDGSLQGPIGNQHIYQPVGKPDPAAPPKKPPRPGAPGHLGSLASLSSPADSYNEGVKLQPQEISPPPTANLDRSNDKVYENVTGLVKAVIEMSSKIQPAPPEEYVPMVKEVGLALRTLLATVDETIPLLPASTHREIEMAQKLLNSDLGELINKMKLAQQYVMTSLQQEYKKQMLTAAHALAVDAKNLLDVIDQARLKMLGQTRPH
CSNK1A1, sequence (P48729 whole entry): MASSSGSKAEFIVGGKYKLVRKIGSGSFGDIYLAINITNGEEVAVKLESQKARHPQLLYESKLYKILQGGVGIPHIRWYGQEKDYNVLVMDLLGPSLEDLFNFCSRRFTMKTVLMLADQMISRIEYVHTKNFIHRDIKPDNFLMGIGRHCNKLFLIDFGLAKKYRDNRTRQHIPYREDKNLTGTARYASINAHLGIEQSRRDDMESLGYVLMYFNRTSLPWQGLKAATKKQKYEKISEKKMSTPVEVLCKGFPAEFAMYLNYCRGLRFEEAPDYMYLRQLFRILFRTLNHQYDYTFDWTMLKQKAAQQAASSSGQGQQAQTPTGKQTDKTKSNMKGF
EPHA2, sequence (P29317 24-976): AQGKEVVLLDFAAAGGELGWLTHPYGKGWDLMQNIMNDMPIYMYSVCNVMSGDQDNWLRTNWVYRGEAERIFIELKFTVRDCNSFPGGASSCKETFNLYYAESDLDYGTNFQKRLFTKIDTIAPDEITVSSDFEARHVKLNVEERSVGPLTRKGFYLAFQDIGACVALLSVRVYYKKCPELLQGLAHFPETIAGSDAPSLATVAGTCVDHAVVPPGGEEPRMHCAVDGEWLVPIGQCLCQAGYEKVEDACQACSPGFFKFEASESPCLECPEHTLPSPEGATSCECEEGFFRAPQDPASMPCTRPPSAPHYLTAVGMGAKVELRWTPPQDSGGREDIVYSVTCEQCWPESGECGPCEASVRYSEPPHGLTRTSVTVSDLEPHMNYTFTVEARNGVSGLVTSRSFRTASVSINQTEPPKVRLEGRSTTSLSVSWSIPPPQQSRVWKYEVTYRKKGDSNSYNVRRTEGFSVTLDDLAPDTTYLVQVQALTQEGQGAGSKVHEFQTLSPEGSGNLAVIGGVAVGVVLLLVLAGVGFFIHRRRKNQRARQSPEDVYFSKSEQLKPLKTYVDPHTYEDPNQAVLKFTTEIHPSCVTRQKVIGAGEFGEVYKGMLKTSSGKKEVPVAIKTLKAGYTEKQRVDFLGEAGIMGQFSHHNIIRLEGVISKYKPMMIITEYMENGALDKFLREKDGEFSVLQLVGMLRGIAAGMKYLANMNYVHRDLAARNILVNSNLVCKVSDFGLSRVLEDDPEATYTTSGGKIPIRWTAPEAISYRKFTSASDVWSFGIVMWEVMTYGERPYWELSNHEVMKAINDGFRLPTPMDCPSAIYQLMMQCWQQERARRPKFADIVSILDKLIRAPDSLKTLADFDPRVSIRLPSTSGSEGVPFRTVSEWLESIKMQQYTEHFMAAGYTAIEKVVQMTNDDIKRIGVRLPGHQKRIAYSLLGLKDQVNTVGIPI
FLT4, sequence (P35916 25-1363): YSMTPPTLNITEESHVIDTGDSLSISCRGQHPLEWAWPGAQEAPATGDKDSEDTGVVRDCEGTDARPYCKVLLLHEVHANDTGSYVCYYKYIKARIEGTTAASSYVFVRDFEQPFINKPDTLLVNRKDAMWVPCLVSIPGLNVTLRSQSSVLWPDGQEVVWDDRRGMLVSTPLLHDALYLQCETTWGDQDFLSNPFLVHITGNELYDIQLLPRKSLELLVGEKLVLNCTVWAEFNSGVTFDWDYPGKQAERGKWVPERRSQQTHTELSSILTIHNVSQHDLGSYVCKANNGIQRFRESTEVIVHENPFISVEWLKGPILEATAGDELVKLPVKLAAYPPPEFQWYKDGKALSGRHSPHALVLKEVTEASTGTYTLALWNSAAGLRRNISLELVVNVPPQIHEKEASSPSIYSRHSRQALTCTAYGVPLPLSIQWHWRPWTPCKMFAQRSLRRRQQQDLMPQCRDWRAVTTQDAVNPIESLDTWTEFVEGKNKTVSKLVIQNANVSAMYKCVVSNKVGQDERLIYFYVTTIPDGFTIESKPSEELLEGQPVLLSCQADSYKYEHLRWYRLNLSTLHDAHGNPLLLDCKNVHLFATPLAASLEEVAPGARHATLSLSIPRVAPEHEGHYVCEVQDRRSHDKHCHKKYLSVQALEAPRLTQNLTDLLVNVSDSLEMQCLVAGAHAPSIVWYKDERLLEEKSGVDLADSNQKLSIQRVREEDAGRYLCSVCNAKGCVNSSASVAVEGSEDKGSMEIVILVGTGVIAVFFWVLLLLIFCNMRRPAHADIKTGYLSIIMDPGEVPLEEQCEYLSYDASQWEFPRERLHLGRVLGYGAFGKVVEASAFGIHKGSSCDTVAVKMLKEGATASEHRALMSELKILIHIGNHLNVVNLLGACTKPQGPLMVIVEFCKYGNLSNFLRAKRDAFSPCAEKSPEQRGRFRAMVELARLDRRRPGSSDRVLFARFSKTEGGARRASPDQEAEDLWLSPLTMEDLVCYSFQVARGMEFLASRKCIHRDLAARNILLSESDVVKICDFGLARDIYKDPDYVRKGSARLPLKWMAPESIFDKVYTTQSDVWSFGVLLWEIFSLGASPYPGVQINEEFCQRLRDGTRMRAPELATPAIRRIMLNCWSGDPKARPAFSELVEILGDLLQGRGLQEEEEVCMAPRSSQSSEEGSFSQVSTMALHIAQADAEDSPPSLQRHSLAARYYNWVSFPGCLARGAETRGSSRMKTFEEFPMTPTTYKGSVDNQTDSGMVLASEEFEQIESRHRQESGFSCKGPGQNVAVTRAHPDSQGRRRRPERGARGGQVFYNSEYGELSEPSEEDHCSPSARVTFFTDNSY
YANK2, sequence (Q9NY57 whole entry): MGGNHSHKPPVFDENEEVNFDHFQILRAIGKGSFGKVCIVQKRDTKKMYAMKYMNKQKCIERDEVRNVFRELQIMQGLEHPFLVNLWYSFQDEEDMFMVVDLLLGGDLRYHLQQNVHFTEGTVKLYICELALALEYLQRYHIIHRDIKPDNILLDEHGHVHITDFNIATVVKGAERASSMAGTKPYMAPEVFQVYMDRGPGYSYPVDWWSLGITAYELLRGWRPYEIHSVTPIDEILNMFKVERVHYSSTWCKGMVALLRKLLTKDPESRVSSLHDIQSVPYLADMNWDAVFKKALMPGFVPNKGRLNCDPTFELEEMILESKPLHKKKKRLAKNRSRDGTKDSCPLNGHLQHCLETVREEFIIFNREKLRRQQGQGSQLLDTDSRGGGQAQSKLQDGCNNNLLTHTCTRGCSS
WEE2, sequence (P0C1S8 whole entry): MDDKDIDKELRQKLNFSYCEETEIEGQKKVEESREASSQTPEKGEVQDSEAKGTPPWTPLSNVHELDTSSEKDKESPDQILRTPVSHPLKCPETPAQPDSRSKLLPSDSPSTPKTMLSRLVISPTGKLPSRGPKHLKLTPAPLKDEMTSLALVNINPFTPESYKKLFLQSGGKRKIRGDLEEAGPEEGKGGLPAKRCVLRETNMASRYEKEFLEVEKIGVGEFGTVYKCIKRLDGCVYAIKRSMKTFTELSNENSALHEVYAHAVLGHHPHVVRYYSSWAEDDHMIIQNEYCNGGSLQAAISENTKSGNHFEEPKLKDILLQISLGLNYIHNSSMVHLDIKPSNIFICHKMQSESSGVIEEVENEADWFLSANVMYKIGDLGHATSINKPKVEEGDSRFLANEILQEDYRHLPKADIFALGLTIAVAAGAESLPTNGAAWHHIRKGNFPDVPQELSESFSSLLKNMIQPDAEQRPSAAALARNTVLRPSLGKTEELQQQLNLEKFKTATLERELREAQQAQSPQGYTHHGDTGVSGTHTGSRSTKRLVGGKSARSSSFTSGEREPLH

Take `CNc1c(-c2cnn([C@H]3CCN(C(C)=O)C[C@@H]3F)c2)cnc2[nH]cc(Cl)c12` [Compound 77, 1-((3S,4S)-4-(4-(3-chloro-4-(methylamino)-1H-pyrrolo[2,3-b]pyridin-5-yl)-1H-pyrazol-1-yl)-3-fluoropiperidin-1-yl)ethan-1-one]: the remaining binding at 1 µM on ACVR1 was 100%; on CSF1R it was 74%; on CSNK1A1, 96%; on DRAK2, 47%; on EPHA2, 96%; at FAK it was 90%. Besides, the remaining binding at 1 µM is 47% on FLT4; 35% at ICK; 49% on MET(M1250T); 100% at MRCKA; 74% on ROS1; 98% in test [1]. Also, the results for the remaining binding at 1 µM on WEE2 and on YANK2 were 95% and 100%, respectively.
For the molecule `CNc1c(-c2ccc(C(=O)N3CCC(N4CCOCC4)CC3)cc2)cnc2[nH]cc(Cl)c12` [Compound 96, (4-(3-chloro-4-(methylamino)-1H-pyrrolo[2,3-b]pyridin-5-yl)phenyl)(4-morpholinopiperidin-1-yl)methanone], the remaining binding at 1 µM on ACVR1 stood at 81%; at CSF1R, 73%; at CSNK1A1 it was 100%; at DRAK2 it was 19%; on EPHA2 it was 100%; on FAK, 65%. Besides, the remaining binding at 1 µM is 66% at FLT4; 35% on ICK; 78% at MET(M1250T); 100% on MRCKA; 89% at ROS1; 91% in [1]. Besides, the remaining binding at 1 µM at WEE2 and on YANK2 was 100% each time.
Regarding `O=C(c1ccc(-c2cnc3[nH]cc(Cl)c3c2NC2CCCC2)cc1)N1CCC(N2CCOCC2)CC1` [Compound 101, (4-(3-chloro-4-(cyclopentylamino)-1H-pyrrolo[2,3-b]pyridin-5-yl)phenyl)(4-morpholinopiperidin-1-yl)methanone], the remaining binding at 1 µM at ACVR1 came to 100%; at CSF1R, 28%; on CSNK1A1, 89%; at DRAK2 it was 92%; at EPHA2, 30%; on FAK, 71%. Besides, the remaining binding at 1 µM on FLT4 worked out at 100%; at ICK, 100%; at MET(M1250T) it was 23%; on MRCKA, 100%; on ROS1 it was 73%; in [1] it was 88%. The remaining binding at 1 µM on WEE2 is 94%; at YANK2 it was 100%.
